In patent US10206394B2, “Herbicidal compounds” (Syngenta Participations AG, priority 2014, dated 2019):
Like-named read-outs stand apart in the source and are kept apart here.

What was measured:
Experiment in all cases: Glasshouse assay for herbicidal activity (pre- and post-emergence), percentage phytotoxicity
Type in all cases: in vivo
[1] = system: Alopecurus myosuroides (ALOMY); settings: Alopecurus myosuroides
Protocol: (§1) Test—Glasshouse Assay for Herbicidal Activity
(§2) Seeds of a variety of monocotyledonous and dicotyledonous test plants are sown in standard soil in pots. The plants are cultivated for one day (for pre-emergence (PRE)) or for about 12 days (for post-emergence (POST)) under controlled conditions in a glasshouse (warm climate species at 24/18° C., cool climate species at 20/16° C., both at day/night; 16 hours light; 65% humidity).
(§3) The test plants are then grown on, in a glasshouse (greenhouse) under controlled conditions (warm climate species at 24/18° C., cool climate species at 20/16° C., both at day/night; 16 hours light; 65% humidity) and are watered twice daily. 15 days after application of the test herbicide (15 DAA) (for post-emergence), and 20 days after application of the test herbicide (20 DAA) (for pre-emergence), the test plants are evaluated visually, and an assessed percentage phytotoxicity score is given for each herbicidal application on each plant species (with 100%=total damage to plant; 0%=no damage to plant).
(§4) The plant species tested are as follows: Alopecurus myosuroides (ALOMY), Avena fatua (AVEFA), Lolium perenne (LOLPE), Echinochloa crus-galli (ECHCG).

Avena fatua (AVEFA) = settings: Avena fatua
Protocol: as §1, §2, §3, §4

[2] = system: Echinochloa crus-galli (ECHCG); settings: Echinochloa crus-galli
Protocol: as §1, §2, §3, §4

Lolium perenne (LOLPE) = settings: Lolium perenne
Protocol: as §1, §2, §3, §4

[3] = post-emergence, 360 h, Rate 250 g/ha, post-emergence, visual assessment 15 DAA, 100%=total damage, 0%=no damage, read-out: Post-emergence herbicidal activity (percentage phytotoxicity) ALOMY POST
[4] = pre-emergence, 480 h, Rate 250 g/ha, pre-emergence, visual assessment 20 DAA, 100%=total damage, 0%=no damage, read-out: Pre-emergence herbicidal activity (percentage phytotoxicity) ALOMY PRE
[5] = post-emergence, 360 h, Rate 250 g/ha, post-emergence, visual assessment 15 DAA, 100%=total damage, 0%=no damage, read-out: Post-emergence herbicidal activity (percentage phytotoxicity) AVEFA POST
[6] = pre-emergence, 480 h, Rate 250 g/ha, pre-emergence, visual assessment 20 DAA, 100%=total damage, 0%=no damage, read-out: Pre-emergence herbicidal activity (percentage phytotoxicity) AVEFA PRE
[7] = post-emergence, 360 h, Rate 250 g/ha, post-emergence, visual assessment 15 DAA, 100%=total damage, 0%=no damage, read-out: Post-emergence herbicidal activity (percentage phytotoxicity) ECHCG POST
[8] = pre-emergence, 480 h, Rate 250 g/ha, pre-emergence, visual assessment 20 DAA, 100%=total damage, 0%=no damage, read-out: Pre-emergence herbicidal activity (percentage phytotoxicity) ECHCG PRE
[9] = post-emergence, 360 h, Rate 250 g/ha, post-emergence, visual assessment 15 DAA, 100%=total damage, 0%=no damage, read-out: Post-emergence herbicidal activity (percentage phytotoxicity) LOLPE POST
[10] = pre-emergence, 480 h, Rate 250 g/ha, pre-emergence, visual assessment 20 DAA, 100%=total damage, 0%=no damage, read-out: Pre-emergence herbicidal activity (percentage phytotoxicity) LOLPE PRE
[11] = pre-emergence, 480 h, Rate 250 g/ha, pre-emergence, assessed visually 20 DAA, 100%=total damage, 0%=no damage, read-out: Pre-emergence herbicidal activity (percentage phytotoxicity) ALOMY PRE
[12] = pre-emergence, 480 h, Rate 250 g/ha, pre-emergence, assessed visually 20 DAA, 100%=total damage, 0%=no damage, read-out: Pre-emergence herbicidal activity (percentage phytotoxicity) AVEFA PRE
[13] = post-emergence, 360 h, Rate 250 g/ha, post-emergence, assessed visually 15 DAA, 100%=total damage, 0%=no damage, read-out: Post-emergence herbicidal activity (percentage phytotoxicity) ECHCG POST
[14] = pre-emergence, 480 h, Rate 250 g/ha, pre-emergence, assessed visually 20 DAA, 100%=total damage, 0%=no damage, read-out: Pre-emergence herbicidal activity (percentage phytotoxicity) ECHCG PRE
[15] = post-emergence, 360 h, Rate 250 g/ha, post-emergence, assessed visually 15 DAA, 100%=total damage, 0%=no damage, read-out: Post-emergence herbicidal activity (percentage phytotoxicity) LOLPE POST
[16] = pre-emergence, 480 h, Rate 250 g/ha, pre-emergence, assessed visually 20 DAA, 100%=total damage, 0%=no damage, read-out: Pre-emergence herbicidal activity (percentage phytotoxicity) LOLPE PRE

Row | Structure (SMILES) | pest or weed control at 250 g/ha [1, 3] [%] | pest or weed control at 250 g/ha [1, 4] [%] | pest or weed control at 250 g/ha (Avena fatua (AVEFA); [5]) [%] | pest or weed control at 250 g/ha (Avena fatua (AVEFA); [6]) [%] | pest or weed control at 250 g/ha [2, 7] [%] | pest or weed control at 250 g/ha [2, 8] [%] | pest or weed control at 250 g/ha (Lolium perenne (LOLPE); [9]) [%] | pest or weed control at 250 g/ha (Lolium perenne (LOLPE); [10]) [%] | pest or weed control at 250 g/ha [1, 11] [%] | pest or weed control at 250 g/ha (Avena fatua (AVEFA); [12]) [%] | pest or weed control at 250 g/ha [2, 13] [%] | pest or weed control at 250 g/ha [2, 14] [%] | pest or weed control at 250 g/ha (Lolium perenne (LOLPE); [15]) [%] | pest or weed control at 250 g/ha (Lolium perenne (LOLPE); [16]) [%] | further results
1 | COCC(C)NC(=O)CC1CC(=O)C(c2c(C)cc(-c3ccc(F)cn3)cc2C)C1=O (centres unmarked) [Compound B391] | 90 | 90 | 100 | 100 | 100 | 100 | 90 | 100 |  |  |  |  |  |  | 
2 | Cc1ccc(CNC(=O)CC2CC(=O)C(c3c(C)cc(-c4ccc(F)cn4)cc3C)C2=O)cc1 (centres unmarked) [Compound B398] | 80 | 50 | 80 | 40 | 100 | 70 | 90 | 70 |  |  |  |  |  |  | 
3 | C=C(C)CNC(=O)CC1CC(=O)C(c2c(C)cc(-n3cc(Cl)cn3)cc2C)C1=O (centres unmarked) [Compound B311] |  |  |  |  |  |  |  |  |  |  |  |  |  |  | pest or weed control at 250 g/ha ([1]; post-emergence, 360 h, POST-emergence, rate 250 g/ha, visual score 15 DAA (100%=total damage, 0%=no damage), read-out: Post-emergence herbicidal activity (percentage phytotoxicity) ALOMY POST): 80%; pest or weed control at 250 g/ha ([1]; pre-emergence, 480 h, PRE-emergence, rate 250 g/ha, visual score 20 DAA (100%=total damage, 0%=no damage), read-out: Pre-emergence herbicidal activity (percentage phytotoxicity) ALOMY PRE): 80%; pest or weed control at 250 g/ha (Avena fatua (AVEFA); post-emergence, 360 h, POST-emergence, rate 250 g/ha, visual score 15 DAA (100%=total damage, 0%=no damage), read-out: Post-emergence herbicidal activity (percentage phytotoxicity) AVEFA POST): 90%; pest or weed control at 250 g/ha (Avena fatua (AVEFA); pre-emergence, 480 h, PRE-emergence, rate 250 g/ha, visual score 20 DAA (100%=total damage, 0%=no damage), read-out: Pre-emergence herbicidal activity (percentage phytotoxicity) AVEFA PRE): 80%; pest or weed control at 250 g/ha ([2]; post-emergence, 360 h, POST-emergence, rate 250 g/ha, visual score 15 DAA (100%=total damage, 0%=no damage), read-out: Post-emergence herbicidal activity (percentage phytotoxicity) ECHCG POST): 100%; pest or weed control at 250 g/ha ([2]; pre-emergence, 480 h, PRE-emergence, rate 250 g/ha, visual score 20 DAA (100%=total damage, 0%=no damage), read-out: Pre-emergence herbicidal activity (percentage phytotoxicity) ECHCG PRE): 90%; pest or weed control at 250 g/ha (Lolium perenne (LOLPE); post-emergence, 360 h, POST-emergence, rate 250 g/ha, visual score 15 DAA (100%=total damage, 0%=no damage), read-out: Post-emergence herbicidal activity (percentage phytotoxicity) LOLPE POST): 70%; pest or weed control at 250 g/ha (Lolium perenne (LOLPE); pre-emergence, 480 h, PRE-emergence, rate 250 g/ha, visual score 20 DAA (100%=total damage, 0%=no damage), read-out: Pre-emergence herbicidal activity (percentage phytotoxicity) LOLPE PRE): 90%
4 | Cc1cnc(CNC(=O)CC2CC(=O)C(c3c(C)cc(-c4ncc(Cl)cc4F)cc3C)C2=O)s1 (centres unmarked) [Compound A123] |  |  |  |  |  |  |  |  | 60 | 70 | 100 | 90 | 90 | 80 | pest or weed control at 250 g/ha ([1]; post-emergence, 360 h, Rate 250 g/ha, post-emergence, assessed visually 15 DAA, 100%=total damage, 0%=no damage, read-out: Post-emergence herbicidal activity (percentage phytotoxicity) ALOMY POST): 80%; pest or weed control at 250 g/ha (Avena fatua (AVEFA); post-emergence, 360 h, Rate 250 g/ha, post-emergence, assessed visually 15 DAA, 100%=total damage, 0%=no damage, read-out: Post-emergence herbicidal activity (percentage phytotoxicity) AVEFA POST): 80%
5 | Cc1cc(-c2cncnc2)cc(C)c1C1C(=O)CC(CC(=O)NCc2ncccc2Cl)C1=O (centres unmarked) [Compound A143] |  |  |  |  |  |  |  |  | 0 | 0 | 40 | 10 | 20 | 10 | 
